Source: ChEMBL document CHEMBL1146357, “Antidepressant-like profile of action of two 4-amine derivatives of 10,11-dihydro-5H-dibenzo [a,d] cycloheptane in mice evaluated in the forced swimming test” (2007)

Experiments:
Type in all cases: functional
Conditions in all cases: route intraperitoneal
[1] = test system: Mus musculus; test: Antidepressant activity in Swiss mouse assessed as immobility time at 30 mg/kg/day, ip after 10 days by 5-mins swim test
[2] = test system: Mus musculus; test: Antidepressant activity in Swiss mouse assessed as immobility time at 5 mg/kg, ip thrice a day by 5-mins swim test
[3] = test system: Mus musculus; test: Antidepressant activity in Swiss mouse assessed as immobility time at 15 mg/kg, ip thrice a day by 5-mins swim test
[4] = test system: Mus musculus; test: Antidepressant activity in Swiss mouse assessed as immobility time at 30 mg/kg, ip thrice a day by 5-mins swim test
[5] = test system: Mus musculus; test: Antidepressant activity in Swiss mouse assessed as immobility time at 50 mg/kg, ip thrice a day by 5-mins swim test
[6] = test system: Mus musculus; test: Antidepressant activity in Swiss mouse assessed as immobility time at 1 mg/kg, ip thrice a day by 5-mins swim test
[7] = test system: Mus musculus; test: Effect on motor co-ordination in Swiss mouse assessed as number of falls at 30 mg/kg, ip after 10 days by Rota-rod test
[8] = test system: Mus musculus; test: Effect on motor co-ordination in Swiss mouse assessed as time on rotating bar at 30 mg/kg, ip after 10 days by Rota-rod test
[9] = test system: Mus musculus; test: Antidepressant activity in Swiss mouse assessed as reduction in immobility time at 30 mg/kg/day, ip after 10 days by 5-mins swim test; set-up: scale not given: the % may be the effect or the level left
[10] = test system: Mus musculus; test: Effect on motor co-ordination in Swiss mouse assessed as number of falls at 15 mg/kg, ip after 10 days by Rota-rod test
[11] = test system: Mus musculus; test: Effect on motor co-ordination in Swiss mouse assessed as time on rotating bar at 15 mg/kg, ip after 10 days by Rota-rod test
[12] = test system: Mus musculus; test: Antidepressant activity in Swiss mouse assessed as immobility time at 100 mg/kg, ip thrice a day by 5-mins swim test
[13] = test system: Mus musculus; test: Antidepressant activity in Swiss mouse assessed as immobility time at 50 mg/kg/day, ip after 10 days by 5-mins swim test
[14] = test system: Mus musculus; test: Effect on motor co-ordination in Swiss mouse assessed as number of falls at 50 mg/kg, ip after 10 days by Rota-rod test
[15] = test system: Mus musculus; test: Effect on motor co-ordination in Swiss mouse assessed as time on rotating bar at 50 mg/kg, ip after 10 days by Rota-rod test
[16] = test system: Mus musculus; test: Antidepressant activity in Swiss mouse assessed as reduction in immobility time at 50 mg/kg/day, ip after 10 days by 5-mins swim test; set-up: scale not given: the % may be the effect or the level left

Compound: c1ccc2c(c1)CCc1cccc3c1C2=NCCN3
- Time [1]: 186.4 s
- Time [2]: 197 s
- Time [3]: 186.57 s
- Time [4]: 169.92 s
- Time [5]: 199.25 s
- Time [6]: 215 s
- Activity [7]: 0.4
- Time [8]: 58.6 s
- Activity [9]: 15%

Compound: CN(C)CCCN1c2ccccc2CCc2ccccc21 [IMIPRAMINE]
- Activity [10]: 0.83
- Time [3]: 137.33 s
- Time [11]: 58.11 s

Compound: CN(C)CCCNc1cccc2c1C(=O)c1ccccc1CC2
- Time [2]: 220.22 s
- Time [3]: 187.1 s
- Time [4]: 169.31 s
- Time [5]: 132 s
- Time [12]: 206.38 s
- Time [13]: 190.33 s
- Activity [14]: 0.5
- Time [15]: 59.5 s
- Activity [16]: 13%
